# Measured values published in article PMC7320180, “Hydroxamic acid derivatives as HDAC1, HDAC6 and HDAC8 inhibitors with antiproliferative activity in cancer cell lines” (Scientific Reports, 2020).
# Test system: HepG2 cells
# Assay: MTT cytotoxicity test, HepG2
# Type: cell-based
# Conditions: Homo sapiens, HepG2, 72 h; MTT, 3 days; read-out: IC50 (µM) HepG2
# Description: (§1) All compounds were evaluated in triplicate using six points, 1/3 dilutions, with the highest concentration of 50 µM. The triplicate measurements were placed in three different 96-plates, and 1% DMSO was used as a negative control.
# (§2) The first sets of […] (GH38, GH18, GH27, FH38, FH18, […] and FH37) were evaluated in different cancer cell lines: HepG2, MCF-7, SH-SY5Y, MIA PaCa-2, and […]. Furthermore, the second series of eight compounds were evaluated using seven cell lines: SH-SY5Y which is a neuroblastoma cell line; HepG2, a hepatocellular carcinoma cell line; MIA PaCa-2, a human pancreatic carcinoma cell line; MCF-7, a breast cancer cell line; HCC1954, a basal-Her2+ breast carcinoma cell line; RCC4-VA, a renal carcinoma cell line with a VHL mutation; and RCC4-VHL, a renal carcinoma cell without the VHL mutation (wild type). The cells used were seeded in 96-well plates and left for 24 h (5% CO2 and 90% humidity, 50000 cells/well) and incubated for 3 days to study the cytotoxicity.
row,Compound,IC50
1,"CCCCc1ccc(C(=O)N[C@@H](Cc2ccc(O)cc2)C(=O)NO)cc1 [YSL-99, (S)-4-butyl-N-(1-(hydroxyamino)-3-(4-hydroxyphenyl)-1-oxopropan-2-yl)benzamide]",30.9 µM
2,"CCCCc1ccc(C(=O)N[C@H](Cc2ccccc2)C(=O)NO)cc1 [YSL-106, (R)-4-butyl-N-(1-(hydroxyamino)-1-oxo-3-phenylpropan-2-yl)benzamide]",11.6 µM
3,"CCCCc1ccc(C(=O)N[C@@H](Cc2cccc3ccccc23)C(=O)NO)cc1 [YSL-109, (S)-4-butyl-N-(1-(hydroxyamino)-3-(naphthalen-1-yl)-1-oxopropan-2-yl)benzamide]",3.39 µM
4,"CCCCc1ccc(C(=O)N[C@@H](Cc2ccc3ccccc3c2)C(=O)NO)cc1 [YSL-112, (S)-4-butyl-N-(1-(hydroxyamino)-3-(naphthalen-2-yl)-1-oxopropan-2-yl)benzamide]",10.8 µM

# Test system: MIA PaCa-2 cells
# Assay: MTT cytotoxicity test, MIA PaCa-2
# Type: cell-based
# Conditions: Homo sapiens, MIA PaCa-2, 72 h; MTT, 3 days; read-out: IC50 (µM) MIA PaCa-2
# Description: as §1, §2
row,Compound,IC50
1,"CCCCc1ccc(C(=O)N[C@@H](Cc2ccc(O)cc2)C(=O)NO)cc1 [YSL-99, (S)-4-butyl-N-(1-(hydroxyamino)-3-(4-hydroxyphenyl)-1-oxopropan-2-yl)benzamide]",> 50 µM
2,"CCCCc1ccc(C(=O)N[C@H](Cc2ccccc2)C(=O)NO)cc1 [YSL-106, (R)-4-butyl-N-(1-(hydroxyamino)-1-oxo-3-phenylpropan-2-yl)benzamide]",21.6 µM
3,"CCCCc1ccc(C(=O)N[C@@H](Cc2cccc3ccccc23)C(=O)NO)cc1 [YSL-109, (S)-4-butyl-N-(1-(hydroxyamino)-3-(naphthalen-1-yl)-1-oxopropan-2-yl)benzamide]",> 50 µM
4,"CCCCc1ccc(C(=O)N[C@@H](Cc2ccc3ccccc3c2)C(=O)NO)cc1 [YSL-112, (S)-4-butyl-N-(1-(hydroxyamino)-3-(naphthalen-2-yl)-1-oxopropan-2-yl)benzamide]",> 50 µM

# Test system: MCF-7 cells
# Assay: MTT cytotoxicity test, MCF-7
# Type: cell-based
# Conditions: Homo sapiens, MCF7, 72 h; MTT, 3 days; read-out: IC50 (µM) MCF-7
# Description: as §1, §2
row,Compound,IC50
1,"CCCCc1ccc(C(=O)N[C@@H](Cc2ccc(O)cc2)C(=O)NO)cc1 [YSL-99, (S)-4-butyl-N-(1-(hydroxyamino)-3-(4-hydroxyphenyl)-1-oxopropan-2-yl)benzamide]",8.96 µM
2,"CCCCc1ccc(C(=O)N[C@H](Cc2ccccc2)C(=O)NO)cc1 [YSL-106, (R)-4-butyl-N-(1-(hydroxyamino)-1-oxo-3-phenylpropan-2-yl)benzamide]",4.94 µM
3,"CCCCc1ccc(C(=O)N[C@@H](Cc2cccc3ccccc23)C(=O)NO)cc1 [YSL-109, (S)-4-butyl-N-(1-(hydroxyamino)-3-(naphthalen-1-yl)-1-oxopropan-2-yl)benzamide]",3.41 µM
4,"CCCCc1ccc(C(=O)N[C@@H](Cc2ccc3ccccc3c2)C(=O)NO)cc1 [YSL-112, (S)-4-butyl-N-(1-(hydroxyamino)-3-(naphthalen-2-yl)-1-oxopropan-2-yl)benzamide]",7.27 µM

# Test system: HCC1954 cells
# Assay: MTT cytotoxicity test, HCC1954
# Type: cell-based
# Conditions: 3 days
# Description: as §1, §2
row,Compound,IC50
1,"CCCCc1ccc(C(=O)N[C@@H](Cc2cccc3ccccc23)C(=O)NO)cc1 [YSL-109, (S)-4-butyl-N-(1-(hydroxyamino)-3-(naphthalen-1-yl)-1-oxopropan-2-yl)benzamide]",3.77 µM

# Same assay, conditions: Homo sapiens, HCC1954, 72 h, 3 days
row,Compound,IC50
1,"CCCCc1ccc(C(=O)N[C@@H](Cc2ccc(O)cc2)C(=O)NO)cc1 [YSL-99, (S)-4-butyl-N-(1-(hydroxyamino)-3-(4-hydroxyphenyl)-1-oxopropan-2-yl)benzamide]",42.9 µM
2,"CCCCc1ccc(C(=O)N[C@H](Cc2ccccc2)C(=O)NO)cc1 [YSL-106, (R)-4-butyl-N-(1-(hydroxyamino)-1-oxo-3-phenylpropan-2-yl)benzamide]",26.1 µM
3,"CCCCc1ccc(C(=O)N[C@@H](Cc2cccc3ccccc23)C(=O)NO)cc1 [YSL-109, (S)-4-butyl-N-(1-(hydroxyamino)-3-(naphthalen-1-yl)-1-oxopropan-2-yl)benzamide]",3.41 µM
4,"CCCCc1ccc(C(=O)N[C@@H](Cc2ccc3ccccc3c2)C(=O)NO)cc1 [YSL-112, (S)-4-butyl-N-(1-(hydroxyamino)-3-(naphthalen-2-yl)-1-oxopropan-2-yl)benzamide]",7.62 µM

# Test system: RCC4-VA cells
# Assay: MTT cytotoxicity test, RCC4-VA
# Type: cell-based
# Conditions: 72 h, 3 days
# Description: as §1, §2
row,Compound,IC50
1,"CCCCc1ccc(C(=O)N[C@@H](Cc2ccc(O)cc2)C(=O)NO)cc1 [YSL-99, (S)-4-butyl-N-(1-(hydroxyamino)-3-(4-hydroxyphenyl)-1-oxopropan-2-yl)benzamide]",> 50 µM
2,"CCCCc1ccc(C(=O)N[C@H](Cc2ccccc2)C(=O)NO)cc1 [YSL-106, (R)-4-butyl-N-(1-(hydroxyamino)-1-oxo-3-phenylpropan-2-yl)benzamide]",12.9 µM
3,"CCCCc1ccc(C(=O)N[C@@H](Cc2cccc3ccccc23)C(=O)NO)cc1 [YSL-109, (S)-4-butyl-N-(1-(hydroxyamino)-3-(naphthalen-1-yl)-1-oxopropan-2-yl)benzamide]",24.9 µM
4,"CCCCc1ccc(C(=O)N[C@@H](Cc2ccc3ccccc3c2)C(=O)NO)cc1 [YSL-112, (S)-4-butyl-N-(1-(hydroxyamino)-3-(naphthalen-2-yl)-1-oxopropan-2-yl)benzamide]",31.9 µM

# Test system: RCC4-VHL cells
# Assay: MTT cytotoxicity test, RCC4-VHL
# Type: cell-based
# Conditions: Homo sapiens, 72 h, 3 days
# Description: as §1, §2
row,Compound,IC50
1,"CCCCc1ccc(C(=O)N[C@@H](Cc2ccc(O)cc2)C(=O)NO)cc1 [YSL-99, (S)-4-butyl-N-(1-(hydroxyamino)-3-(4-hydroxyphenyl)-1-oxopropan-2-yl)benzamide]",> 50 µM
2,"CCCCc1ccc(C(=O)N[C@H](Cc2ccccc2)C(=O)NO)cc1 [YSL-106, (R)-4-butyl-N-(1-(hydroxyamino)-1-oxo-3-phenylpropan-2-yl)benzamide]",21.1 µM
3,"CCCCc1ccc(C(=O)N[C@@H](Cc2cccc3ccccc23)C(=O)NO)cc1 [YSL-109, (S)-4-butyl-N-(1-(hydroxyamino)-3-(naphthalen-1-yl)-1-oxopropan-2-yl)benzamide]",32.7 µM
4,"CCCCc1ccc(C(=O)N[C@@H](Cc2ccc3ccccc3c2)C(=O)NO)cc1 [YSL-112, (S)-4-butyl-N-(1-(hydroxyamino)-3-(naphthalen-2-yl)-1-oxopropan-2-yl)benzamide]",46.5 µM

# Test system: SH-SY5Y cells
# Assay: MTT cytotoxicity test, SH-SY5Y
# Type: cell-based
# Conditions: Homo sapiens, 72 h, 3 days
# Description: as §1, §2
row,Compound,IC50
1,"CCCCc1ccc(C(=O)N[C@@H](Cc2ccc(O)cc2)C(=O)NO)cc1 [YSL-99, (S)-4-butyl-N-(1-(hydroxyamino)-3-(4-hydroxyphenyl)-1-oxopropan-2-yl)benzamide]",36.2 µM
2,"CCCCc1ccc(C(=O)N[C@H](Cc2ccccc2)C(=O)NO)cc1 [YSL-106, (R)-4-butyl-N-(1-(hydroxyamino)-1-oxo-3-phenylpropan-2-yl)benzamide]",18.9 µM
3,"CCCCc1ccc(C(=O)N[C@@H](Cc2cccc3ccccc23)C(=O)NO)cc1 [YSL-109, (S)-4-butyl-N-(1-(hydroxyamino)-3-(naphthalen-1-yl)-1-oxopropan-2-yl)benzamide]",6.42 µM
4,"CCCCc1ccc(C(=O)N[C@@H](Cc2ccc3ccccc3c2)C(=O)NO)cc1 [YSL-112, (S)-4-butyl-N-(1-(hydroxyamino)-3-(naphthalen-2-yl)-1-oxopropan-2-yl)benzamide]",21.4 µM

# Molecular target: T1, HDAC1 (Homo sapiens, UniProt Q13547)
# T1 construct: purchased Enzo Life Sciences BML-AK511
# Assay: HDAC fluorometric enzymatic inhibition assay, HDAC1
# Type: biochemical
# Conditions: read-out: IC50 (nM) HDAC1
# T1 sequence (Q13547 whole entry): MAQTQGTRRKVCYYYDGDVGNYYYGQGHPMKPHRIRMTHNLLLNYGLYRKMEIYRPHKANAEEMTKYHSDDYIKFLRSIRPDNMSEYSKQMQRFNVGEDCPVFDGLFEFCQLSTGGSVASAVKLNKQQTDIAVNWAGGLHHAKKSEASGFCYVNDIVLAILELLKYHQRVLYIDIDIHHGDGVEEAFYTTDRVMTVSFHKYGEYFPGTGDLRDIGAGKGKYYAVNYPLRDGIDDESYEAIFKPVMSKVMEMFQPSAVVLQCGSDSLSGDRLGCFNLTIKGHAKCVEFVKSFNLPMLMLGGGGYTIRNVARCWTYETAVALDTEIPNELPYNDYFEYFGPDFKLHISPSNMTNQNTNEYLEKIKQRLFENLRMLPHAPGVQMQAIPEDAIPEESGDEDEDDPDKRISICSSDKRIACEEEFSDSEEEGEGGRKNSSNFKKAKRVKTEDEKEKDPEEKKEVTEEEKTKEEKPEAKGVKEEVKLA
row,Compound,IC50
1,"CCCCc1ccc(C(=O)N[C@@H](Cc2cccc3ccccc23)C(=O)NO)cc1 [YSL-109, (S)-4-butyl-N-(1-(hydroxyamino)-3-(naphthalen-1-yl)-1-oxopropan-2-yl)benzamide]",259000 nM

# Same assay, conditions: read-out: IC50 HDAC1
row,Compound,IC50
1,"CCCCc1ccc(C(=O)N[C@@H](Cc2cccc3ccccc23)C(=O)NO)cc1 [YSL-109, (S)-4-butyl-N-(1-(hydroxyamino)-3-(naphthalen-1-yl)-1-oxopropan-2-yl)benzamide]",259000 nM

# Molecular target: T2, HDAC6 (Homo sapiens, UniProt Q9UBN7)
# T2 construct: purchased Enzo Life Sciences BML-AK516
# T2 sequence (Q9UBN7 1-1215): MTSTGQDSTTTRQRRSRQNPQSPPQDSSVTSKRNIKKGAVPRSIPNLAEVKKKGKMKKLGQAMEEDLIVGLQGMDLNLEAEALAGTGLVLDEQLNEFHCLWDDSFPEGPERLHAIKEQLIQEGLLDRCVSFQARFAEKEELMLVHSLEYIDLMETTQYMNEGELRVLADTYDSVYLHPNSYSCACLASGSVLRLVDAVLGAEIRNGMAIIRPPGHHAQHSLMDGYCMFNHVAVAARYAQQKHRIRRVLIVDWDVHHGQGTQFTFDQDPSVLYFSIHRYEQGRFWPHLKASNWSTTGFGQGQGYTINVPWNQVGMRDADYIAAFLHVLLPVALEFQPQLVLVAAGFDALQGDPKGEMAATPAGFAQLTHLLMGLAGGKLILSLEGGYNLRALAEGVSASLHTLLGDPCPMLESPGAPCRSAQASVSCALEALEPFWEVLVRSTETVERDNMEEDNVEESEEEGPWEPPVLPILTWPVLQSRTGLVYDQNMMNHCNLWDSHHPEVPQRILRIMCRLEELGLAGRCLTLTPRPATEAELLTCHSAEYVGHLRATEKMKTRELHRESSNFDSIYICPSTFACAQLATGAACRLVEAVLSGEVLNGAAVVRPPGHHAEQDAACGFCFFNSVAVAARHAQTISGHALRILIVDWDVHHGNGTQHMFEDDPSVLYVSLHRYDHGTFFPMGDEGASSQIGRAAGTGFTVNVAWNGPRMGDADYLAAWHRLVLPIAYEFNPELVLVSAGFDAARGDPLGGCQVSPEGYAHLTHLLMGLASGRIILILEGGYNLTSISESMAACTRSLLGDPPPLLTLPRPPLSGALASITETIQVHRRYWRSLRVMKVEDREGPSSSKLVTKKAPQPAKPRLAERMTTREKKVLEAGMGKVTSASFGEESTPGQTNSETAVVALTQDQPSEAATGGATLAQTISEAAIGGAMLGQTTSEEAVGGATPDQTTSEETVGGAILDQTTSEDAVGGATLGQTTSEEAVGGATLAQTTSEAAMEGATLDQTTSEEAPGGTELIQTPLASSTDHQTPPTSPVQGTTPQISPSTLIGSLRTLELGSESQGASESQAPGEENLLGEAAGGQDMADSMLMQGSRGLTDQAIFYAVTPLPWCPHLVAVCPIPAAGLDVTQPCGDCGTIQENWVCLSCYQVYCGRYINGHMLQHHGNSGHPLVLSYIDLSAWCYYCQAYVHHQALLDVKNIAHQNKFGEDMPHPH
# Assay: HDAC fluorometric enzymatic inhibition assay, HDAC6
# Type: biochemical
# Conditions: not given
row,Compound,IC50
1,"CCCCc1ccc(C(=O)N[C@@H](Cc2cccc3ccccc23)C(=O)NO)cc1 [YSL-109, (S)-4-butyl-N-(1-(hydroxyamino)-3-(naphthalen-1-yl)-1-oxopropan-2-yl)benzamide]",0.537 nM

# Same assay, conditions: HDAC6 compared with HDAC8 and HDAC1
row,Compound,selectivity for HDAC6
1,"CCCCc1ccc(C(=O)N[C@@H](Cc2cccc3ccccc23)C(=O)NO)cc1 [YSL-109, (S)-4-butyl-N-(1-(hydroxyamino)-3-(naphthalen-1-yl)-1-oxopropan-2-yl)benzamide]",4000 fold

# Molecular target: T3, HDAC8 (Homo sapiens, UniProt Q9BY41)
# T3 construct: purchased Enzo Life Sciences BML-AK518
# T3 sequence (Q9BY41 1-377): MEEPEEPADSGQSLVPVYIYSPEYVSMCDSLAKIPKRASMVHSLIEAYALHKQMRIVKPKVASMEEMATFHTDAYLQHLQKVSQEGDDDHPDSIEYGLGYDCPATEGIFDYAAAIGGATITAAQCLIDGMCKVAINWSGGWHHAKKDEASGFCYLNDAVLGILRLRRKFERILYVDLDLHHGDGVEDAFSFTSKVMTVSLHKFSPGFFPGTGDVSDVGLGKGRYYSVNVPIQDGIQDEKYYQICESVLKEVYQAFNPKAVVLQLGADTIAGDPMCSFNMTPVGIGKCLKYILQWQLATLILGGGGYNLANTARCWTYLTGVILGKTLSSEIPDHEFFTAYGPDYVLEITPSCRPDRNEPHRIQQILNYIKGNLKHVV
# Assay: HDAC fluorometric enzymatic inhibition assay, HDAC8
# Type: biochemical
# Conditions: read-out: IC50 (nM) HDAC8
row,Compound,IC50
1,"CCCCc1ccc(C(=O)N[C@@H](Cc2cccc3ccccc23)C(=O)NO)cc1 [YSL-109, (S)-4-butyl-N-(1-(hydroxyamino)-3-(naphthalen-1-yl)-1-oxopropan-2-yl)benzamide]",2240 nM

# Same assay, conditions: read-out: IC50 HDAC8
row,Compound,IC50
1,"CCCCc1ccc(C(=O)N[C@@H](Cc2cccc3ccccc23)C(=O)NO)cc1 [YSL-109, (S)-4-butyl-N-(1-(hydroxyamino)-3-(naphthalen-1-yl)-1-oxopropan-2-yl)benzamide]",2240 nM
